Experimental data from patent US20110312914A1, “CARBON MONOXIDE REMOVAL AGENT” (priority 2009, published 2011).

Legend:
[1] = effect of the cyclodextrin dimer on the urinary excretion of porphyrins, absorbance at 420 nm of urine; assay type: in vivo; conditions: rat, medical agent containing just the porphyrin (0.5 mM) administered, before Py3CD
Protocol: The influence that the cyclodextrin dimer has on the excretion of the carbon monoxide removal agent in urine was examined. Specifically, each of the porphyrins was administered solitarily into a rat and absorbance at 420 nm, at which each administered porphyrin has a strong absorption band, was measured to examine the amount of the porphyrin excreted into urine. Also, after administration of each porphyrin, the cyclodextrin dimer was administered and the influence thereof was examined. Specifically, an experiment was performed as follows.
Commercially available FeTPPS (made by Frontier Scientific Inc.) and TPPS (made by Tokyo Chemical Industry Co., Ltd.) with the central metal removed from FeTPPS were respectively dissolved separately to a concentration of 0.5 mM in a PBS buffer (pH 7.4) and thereby prepared as medical agents. Also, a Py3CD solution was prepared by dissolving Py3CD to a concentration of 0.6 mM in the PBS buffer (pH 7.4). Further, ultraviolet-visible absorption spectra were measured using the same apparatuses as in EXAMPLE 1.
The medical agent containing FeTPPS was administered continuously to a rat by the syringe pump (1 mL/min). By the same method as in EXAMPLE 1, urine was sampled every 30 minutes from the start of administration and the change with time of the absorbance at 420 nm was examined. […]

[2] = target: T1, Serum albumin (RSA) (Rattus norvegicus, UniProt P02770); assay: ultraviolet-visible titration of FeTPPS solution with RSA solution; assay type: binding; conditions: 5×10^−6 M FeTPPS, PBS buffer pH 7.4
T1 construct: purchased SIGMA; Co., Ltd
From the text: Serum albumin (RSA) is a protein component of the highest content in blood and is known to have a property of taking in various hydrophobic molecules. FeTPPS is not an exception and is known to bind strongly to serum albumin (see, for example, V. E. Yushmanov et al, Mag. Res. Imaging, 14, 255-261 (1996), T. T. Tominaga et al, J. Inorg. Biochem., 65, 235-244 (1997), etc.). The effect of inducing urinary excretion of FeTPPS by Py3CD was thus compared with that by RSA. Specifically, an experiment was performed as follows.
FeTPPS was dissolved in a PBS buffer (pH 7.4) to prepare a 5 μM solution, and Py3CD and RSA (made by SIGMA. Co., Ltd.) were separately dissolved in the PBS buffer (pH 7.4) to prepare respective stock solutions. Ultraviolet-visible absorption spectra were measured with the same apparatuses as those used in EXAMPLE 1.
The FeTPPS solution was placed in a cuvette, ultraviolet-visible absorption spectra were measured while adding fixed amounts of the RSA solution to the cuvette, and at a point at which changes reached saturation, ultraviolet-visible absorption spectra were measured while adding the Py3CD solution in place of the RSA solution. FIG. 4(a) is a diagram showing the changes in the ultraviolet-visible absorption spectra and FIG. 4(b) is a titration plot.

[3] = diafiltration test, kidney model using an ultrafiltration membrane (molecular weight cutoff 30,000); assay type: in vitro ADME
Protocol: The mechanism by which the carbon monoxide removal agent according to the present invention is excreted from blood into urine via kidneys was examined by way of a kidney model using an ultrafiltration membrane. Specifically, an experiment was performed as follows.
FeTPPS, RSA, and Py3CD (procured from the same firms as in EXAMPLE 3) were respectively dissolved in a PBS buffer (pH 7.4) to prepare 0.22 μM solutions. Also, ultraviolet-visible absorption spectra were measured using the same apparatuses as in EXAMPLE 1. As the ultrafiltration membrane, a stirred cell (Model 8050 made by Millipore Corp.) with an ultrafiltration membrane with a molecular weight cutoff of 30,000 attached was used.
Equivalent amounts of the FeTPPS solution and the RSA solution were mixed to prepare an equimolar mixture, and the equimolar mixture solution was placed in the stirred cell that was set above a recovery beaker. While pressurizing with nitrogen gas, a filtrate was recovered at every fixed amount and subject to ultraviolet-visible absorption spectral analysis.
At a point at which 20 mL of the filtrate was recovered, the Py3CD solution was added so that the molar amount of Py3CD was equal to the molar amount of each of FeTPPS and RSA in the residual solution. […]

T1 sequence (P02770 25-608): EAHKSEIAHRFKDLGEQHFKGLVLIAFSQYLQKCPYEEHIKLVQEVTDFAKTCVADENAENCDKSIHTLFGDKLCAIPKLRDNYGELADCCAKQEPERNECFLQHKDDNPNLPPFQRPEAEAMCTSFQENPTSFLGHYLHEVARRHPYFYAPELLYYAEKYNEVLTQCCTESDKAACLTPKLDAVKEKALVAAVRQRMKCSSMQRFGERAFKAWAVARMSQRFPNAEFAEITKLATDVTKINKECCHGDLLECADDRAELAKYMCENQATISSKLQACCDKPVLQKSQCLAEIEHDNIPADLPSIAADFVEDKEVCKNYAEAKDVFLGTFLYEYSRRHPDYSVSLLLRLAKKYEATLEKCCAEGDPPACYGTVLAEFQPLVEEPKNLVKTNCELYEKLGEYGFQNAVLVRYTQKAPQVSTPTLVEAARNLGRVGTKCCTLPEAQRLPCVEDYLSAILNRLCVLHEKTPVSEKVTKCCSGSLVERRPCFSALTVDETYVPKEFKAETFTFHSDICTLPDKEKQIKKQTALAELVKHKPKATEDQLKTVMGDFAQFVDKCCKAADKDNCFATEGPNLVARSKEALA

Row | Compound | excretion of porphyrin in urine [1] | RSA amount at which the spectral changes reach saturation [2] | number of FeTPPS molecules that can bind to a single RSA molecule [2] | passage through the ultrafiltration membrane ([3]; FeTPPS held by RSA (equimolar mixture), before Py3CD addition) | passage through the ultrafiltration membrane ([3]; FeTPPS released from RSA by addition of Py3CD and included in Py3CD)
1 | 5,10,15,20-tetrakis(4-sulfonatophenyl)porphyrin (II) iron complex [FeTPPS] | not excreted at all in urine | approximately ⅓ | approximately three | cannot pass through the ultrafiltration membrane | capable of passing through the ultrafiltration membrane
2 | O=S(=O)(O)c1ccc(-c2c3nc(c(-c4ccc(S(=O)(=O)O)cc4)c4ccc([nH]4)c(-c4ccc(S(=O)(=O)O)cc4)c4nc(c(-c5ccc(S(=O)(=O)O)cc5)c5ccc2[nH]5)C=C4)C=C3)cc1 [TPPS, reference compound] | not excreted at all in urine | – | – | – | –
